Test results taken from patent US6706663B2, “Herbicidal 3-heterocyclic substituted benzisothiazole and benzisoxazole compounds” (Wyeth, priority 2000, dated 2004).

Experiments:
[1] = system: AMBEL (Ambrosia artemisifolia); assay: Preemergence herbicidal evaluation; type: in vivo, L.; settings: preemergence, rated 4-5 weeks after treatment
Procedure, shortened: (§1)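 Scores (0–9) reflect visual comparison with control plants for stand, vigor, malformation, size and chlorosis. Seeds in potting soil received a post-planting spray of compound in aqueous acetone and grew in a greenhouse until assessment 4–5 weeks later.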

[2] = system: CASOB (Cassia obtusifolia); assay: Postemergence herbicidal evaluation; type: in vivo, L.; settings: postemergence
Procedure, shortened: (§2)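 Seedlings grown about two weeks in flats, sprayed, then kept under standard greenhouse care. Rated visually 4–5 weeks after treatment on a 0–9 scale (stand, vigour, malformation, size, chlorosis, overall appearance) relative to untreated control; repeat tests averaged.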

[3] = system: AMBEL (Ambrosia artemisifolia); assay: Postemergence herbicidal evaluation; type: in vivo, L.; settings: postemergence
Procedure, shortened: as §2

[4] = system: CHEAL (Chenopodium album); assay: Postemergence herbicidal evaluation; type: in vivo, L.; settings: postemergence
Procedure, shortened: as §2

[5] = system: ECHCG (Echinochloa crus-galli); assay: Postemergence herbicidal evaluation; type: in vivo, (L.) Beau; settings: postemergence
Procedure, shortened: as §2

[6] = system: GALAP (Galium aparine); assay: Preemergence herbicidal evaluation; type: in vivo; settings: preemergence, rated 4-5 weeks after treatment
Procedure, shortened: as §1

[7] = system: MOOVA (Monochoria vaginalis); assay: Flooded paddy, preemergence weed control; type: in vivo, Presl.; settings: rated 3-4 weeks after treatment, 0-9 rating scale
Procedure, shortened: (§3)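 Silt loam, sowing depth ≤0.5 cm; permanent flood 1.5–3 cm above soil; greenhouse culture after treatment. Readout: 0-9 visual scale (stand, vigor, malformation, size, chlorosis, appearance) vs control.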

[8] = system: GALAP (Galium aparine); assay: Postemergence herbicidal evaluation; type: in vivo; settings: postemergence
Procedure, shortened: as §2

[9] = system: ZEAMX (Corn, Field); assay: Preemergence herbicidal evaluation; type: in vivo, Zea mays, L.; settings: preemergence, rated 4-5 weeks after treatment
[10] = system: ZEAMX (Corn, Field); assay: Postemergence herbicidal evaluation; type: in vivo, Zea mays, L.; settings: postemergence
Procedure, shortened: as §2

[11] = system: IPOHE (Ipomoea hederacea); assay: Preemergence herbicidal evaluation; type: in vivo, (L.) Jacq.; settings: preemergence, rated 4-5 weeks after treatment
[12] = system: CYPIR (Cyperus iria); assay: Flooded paddy, preemergence weed control; type: in vivo; settings: rated 3-4 weeks after treatment, 0-9 rating scale
Procedure, shortened: as §3

[13] = system: ABUTH (Abutilon theophrasti); assay: Preemergence herbicidal evaluation; type: in vivo, Medic.; settings: preemergence, rated 4-5 weeks after treatment
[14] = system: TRZAWR (Wheat, Winter, cv Riband); assay: Postemergence herbicidal evaluation; type: in vivo, Triticum aestivum; settings: postemergence
Procedure, shortened: as §2

[15] = system: GLXMA (Soybean); assay: Preemergence herbicidal evaluation; type: in vivo, Glycine max, (L.) Merr.; settings: preemergence, rated 4-5 weeks after treatment
[16] = system: IPOHE (Ipomoea hederacea); assay: Postemergence herbicidal evaluation; type: in vivo, (L.) Jacq.; settings: postemergence
Procedure, shortened: as §2

[17] = system: SAGPY (Sagittaria pygmaea); assay: Flooded paddy, preemergence weed control; type: in vivo, L.; settings: rated 3-4 weeks after treatment, 0-9 rating scale
Procedure, shortened: as §3

[18] = system: ABUTH (Abutilon theophrasti); assay: Postemergence herbicidal evaluation; type: in vivo, Medic.; settings: postemergence
Procedure, shortened: as §2

[19] = system: ORYSAT (Rice, Tebonnet); assay: Postemergence herbicidal evaluation; type: in vivo, Oryza sativa, (L.) Tebonnet; settings: postemergence
Procedure, shortened: as §2

[20] = system: ECHCG (Echinochloa crus-galli); assay: Preemergence herbicidal evaluation; type: in vivo, (L.) Beau; settings: preemergence, rated 4-5 weeks after treatment
Procedure, shortened: as §1

[21] = system: ECHORC (Echinochloa oryzoides); assay: Flooded paddy, preemergence weed control; type: in vivo, Echinochloa oryzoides (Ard.) Fritsch.; settings: rated 3-4 weeks after treatment, 0-9 rating scale
Procedure, shortened: as §3

[22] = system: ORYSAT (Rice, Tebonnet); assay: Flooded paddy, post-transplant rice tolerance; type: in vivo, Oryza sativa, (L.) Tebonnet; settings: flooded paddy, post-transplant rice, rated 3-4 weeks after treatment, 0-9 rating scale
Procedure, shortened: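 Scores (0-9) reflect visual injury relative to untreated plants in flooded silt loam. Each pot held two transplanted ten-day-old seedlings under 1.5 to 3 cm standing water in the greenhouse.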

[23] = system: GLXMAW (Soybean, Williams); assay: Postemergence herbicidal evaluation; type: in vivo, Glycine max, (L.) Merr. cv Williams; settings: postemergence
Procedure, shortened: as §2

[2-[5-[3,6-dihydro-3-methyl-2,6-dioxo-4-(trifluoromethyl)-1(2H)-pyrimidinyl]-1,2-benzisothiazol-3-1]-1,3-dioxolan-4-yl]methyl thiocyanate [Compound 89]
5.0: ECHORC herbicidal rating ([21]; rate 0.1250 kg/ha)
7.5: GLXMAW herbicidal rating ([23]; rate 0.0320 kg/ha)
7.0: AMBEL herbicidal rating ([3]; rate 0.0080 kg/ha) | Preemergence herbicidal rating GALAP ([6]; rate 0.2500 kg/ha) | GALAP herbicidal rating ([8]; rate 0.0620 kg/ha) | Preemergence herbicidal rating IPOHE ([11]; rate 0.0620 kg/ha) | IPOHE herbicidal rating ([16]; rate 0.0080 kg/ha) | Preemergence herbicidal rating ECHCG ([20]; rate 0.2500 kg/ha) | GLXMAW herbicidal rating ([23]; rate 0.0080 kg/ha)
3.0: ECHCG herbicidal rating ([5]; rate 0.0620 kg/ha) | Preemergence herbicidal rating GALAP ([6]; rate 0.0620 kg/ha) | GALAP herbicidal rating ([8]; rate 0.0320 kg/ha) | Preemergence herbicidal rating ZEAMX ([9]; rate 0.1250 kg/ha) | ZEAMX herbicidal rating ([10]; rate 0.0080 kg/ha) | TRZAWR herbicidal rating ([14]; rate 0.0320 kg/ha) | TRZAWR herbicidal rating ([14]; rate 0.0620 kg/ha) | Preemergence herbicidal rating GLXMA ([15]; rate 0.0620 kg/ha) | ORYSAT herbicidal rating ([19]; rate 0.0320 kg/ha) | ORYSAT herbicidal rating ([19]; rate 0.0620 kg/ha) | Preemergence herbicidal rating ECHCG ([20]; rate 0.1250 kg/ha) | ECHORC herbicidal rating ([21]; rate 0.0320 kg/ha)
9.0: Preemergence herbicidal rating AMBEL ([1]; rate 0.1250 kg/ha) | Preemergence herbicidal rating AMBEL ([1]; rate 0.2500 kg/ha) | CASOB herbicidal rating ([2]; rate 0.0080 kg/ha) | CASOB herbicidal rating ([2]; rate 0.0320 kg/ha) | CASOB herbicidal rating ([2]; rate 0.0620 kg/ha) | CASOB herbicidal rating ([2]; rate 0.1250 kg/ha) | AMBEL herbicidal rating ([3]; rate 0.0320 kg/ha) | AMBEL herbicidal rating ([3]; rate 0.0620 kg/ha) | AMBEL herbicidal rating ([3]; rate 0.1250 kg/ha) | CHEAL herbicidal rating ([4]; rate 0.0320 kg/ha) | CHEAL herbicidal rating ([4]; rate 0.0620 kg/ha) | CHEAL herbicidal rating ([4]; rate 0.1250 kg/ha) | GALAP herbicidal rating ([8]; rate 0.1250 kg/ha) | Preemergence herbicidal rating IPOHE ([11]; rate 0.2500 kg/ha) | Preemergence herbicidal rating ABUTH ([13]; rate 0.0620 kg/ha) | Preemergence herbicidal rating ABUTH ([13]; rate 0.1250 kg/ha) | Preemergence herbicidal rating ABUTH ([13]; rate 0.2500 kg/ha) | Preemergence herbicidal rating GLXMA ([15]; rate 0.2500 kg/ha) | IPOHE herbicidal rating ([16]; rate 0.0320 kg/ha) | IPOHE herbicidal rating ([16]; rate 0.0620 kg/ha) | IPOHE herbicidal rating ([16]; rate 0.1250 kg/ha) | SAGPY herbicidal rating ([17]; rate 0.1250 kg/ha) | ABUTH herbicidal rating ([18]; rate 0.0320 kg/ha) | ABUTH herbicidal rating ([18]; rate 0.0620 kg/ha) | ABUTH herbicidal rating ([18]; rate 0.1250 kg/ha) | GLXMAW herbicidal rating ([23]; rate 0.1250 kg/ha)
2.0: GALAP herbicidal rating ([8]; rate 0.0080 kg/ha)
1.5: TRZAWR herbicidal rating ([14]; rate 0.0080 kg/ha) | ORYSAT herbicidal rating ([19]; rate 0.0080 kg/ha)
8.0: CHEAL herbicidal rating ([4]; rate 0.0080 kg/ha) | MOOVA herbicidal rating ([7]; rate 0.1250 kg/ha) | Preemergence herbicidal rating IPOHE ([11]; rate 0.1250 kg/ha) | CYPIR herbicidal rating ([12]; rate 0.1250 kg/ha) | ABUTH herbicidal rating ([18]; rate 0.0080 kg/ha) | GLXMAW herbicidal rating ([23]; rate 0.0620 kg/ha)
4.0: Preemergence herbicidal rating AMBEL ([1]; rate 0.0620 kg/ha) | ECHCG herbicidal rating ([5]; rate 0.1250 kg/ha) | Preemergence herbicidal rating ZEAMX ([9]; rate 0.2500 kg/ha) | TRZAWR herbicidal rating ([14]; rate 0.1250 kg/ha) | ORYSAT herbicidal rating ([19]; rate 0.1250 kg/ha)
6.0: Preemergence herbicidal rating GALAP ([6]; rate 0.1250 kg/ha) | Preemergence herbicidal rating GLXMA ([15]; rate 0.1250 kg/ha) | ORYSAT herbicidal rating (transplanted rice tolerance) ([22]; rate 0.1250 kg/ha)
0.0: ECHCG herbicidal rating ([5]; rate 0.0080 kg/ha) | ECHCG herbicidal rating ([5]; rate 0.0320 kg/ha) | MOOVA herbicidal rating ([7]; rate 0.0320 kg/ha) | Preemergence herbicidal rating ZEAMX ([9]; rate 0.0620 kg/ha) | CYPIR herbicidal rating ([12]; rate 0.0320 kg/ha) | SAGPY herbicidal rating ([17]; rate 0.0320 kg/ha) | Preemergence herbicidal rating ECHCG ([20]; rate 0.0620 kg/ha) | ORYSAT herbicidal rating (transplanted rice tolerance) ([22]; rate 0.0320 kg/ha)
3.5: ZEAMX herbicidal rating ([10]; rate 0.0320 kg/ha) | ZEAMX herbicidal rating ([10]; rate 0.0620 kg/ha) | ZEAMX herbicidal rating ([10]; rate 0.1250 kg/ha)
